Test: toxicity in mice: body weight and observations after IP administration
Format: in vivo
Settings: for body weight / body weight change (% wt/wt): male mice
Outline: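 Mice (female where stated) received the test compound intraperitoneally on day 1, dissolved in 20% hydroxypropylcyclodextrane at an administration volume of 10 ml/kg. Toxicity was assessed from body weight, body weight change (% wt/wt) and observations of the animals after administration.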

With CC(C)c1ccc(-c2cn3nc(N4CCC(CN5CCN(CCO)CC5)CC4)sc3n2)cc1 [Compound E266, 2-(4-{1-[6-(4-isopropyl-phenyl)-imidazo[2,1-b][1,3,4]thiadiazol-2-yl]-piperidin-4-ylmethyl}-piperazin-1-yl)-ethanol] the body weight (100 mg/kg IP, day 1) was 37.4 g, the “body weight change (% wt/wt)” value (100 mg/kg IP, day 1) was 0% and the body weight (100 mg/kg IP, day 2) was 38.2 g. The “body weight change (% wt/wt)” value (100 mg/kg IP, day 2) was 2.1%, the body weight (100 mg/kg IP, day 3) was 38 g and the “body weight change (% wt/wt)” value (100 mg/kg IP, day 3) was 1.6%. For the same compound, the body weight (100 mg/kg IP, day 4) was 37.3 g, the “body weight change (% wt/wt)” value (100 mg/kg IP, day 4) was −0.3% and the body weight (100 mg/kg IP, day 5) was 37.9 g. The “body weight change (% wt/wt)” value (100 mg/kg IP, day 5) was 1.3%, the body weight (100 mg/kg IP, day 6) was 37.5 g and the “body weight change (% wt/wt)” value (100 mg/kg IP, day 6) was 0.3%. The body weight (100 mg/kg IP, day 7) was 37.4 g, the “body weight change (% wt/wt)” value (100 mg/kg IP, day 7) was 0.0% and the body weight (100 mg/kg IP, day 8) was 37.5 g. The “body weight change (% wt/wt)” value (100 mg/kg IP, day 8) was 0.3%, the body weight (100 mg/kg IP, day 9) was 36.8 g and the “body weight change (% wt/wt)” value (100 mg/kg IP, day 9) was −1.6%. The body weight (100 mg/kg IP, day 10) was 37.2 g, the “body weight change (% wt/wt)” value (100 mg/kg IP, day 10) was −0.5% and the body weight (100 mg/kg IP, day 11) was 37.3 g. For the same compound, the “body weight change (% wt/wt)” value (100 mg/kg IP, day 11) was −0.3%, the body weight (100 mg/kg IP, day 12) was 37.3 g and the “body weight change (% wt/wt)” value (100 mg/kg IP, day 12) was −0.3%. The body weight (100 mg/kg IP, day 13) was 37.7 g, the “body weight change (% wt/wt)” value (100 mg/kg IP, day 13) was 0.8% and the body weight (100 mg/kg IP, day 14) was 38.1 g. The “body weight change (% wt/wt)” value (100 mg/kg IP, day 14) was 1.9%, the body weight (100 mg/kg IP, day 15) was 36.6 g and the “body weight change (% wt/wt)” value (100 mg/kg IP, day 15) was −2.1%. For the same compound, the body weight (200 mg/kg IP, day 1) was 37.8 g, the “body weight change (% wt/wt)” value (200 mg/kg IP, day 1) was 0% and the body weight (200 mg/kg IP, day 2) was 38.1 g. For the same compound, the “body weight change (% wt/wt)” value (200 mg/kg IP, day 2) was 0.8%, the body weight (200 mg/kg IP, day 3) was 38.2 g and the “body weight change (% wt/wt)” value (200 mg/kg IP, day 3) was 1.1%. The body weight (200 mg/kg IP, day 4) was 38.3 g, the “body weight change (% wt/wt)” value (200 mg/kg IP, day 4) was 1.3% and the body weight (200 mg/kg IP, day 5) was 37.6 g. For the same compound, the “body weight change (% wt/wt)” value (200 mg/kg IP, day 5) was −0.5%, the body weight (200 mg/kg IP, day 6) was 38 g and the “body weight change (% wt/wt)” value (200 mg/kg IP, day 6) was 0.5%. The body weight (200 mg/kg IP, day 7) was 39.2 g, the “body weight change (% wt/wt)” value (200 mg/kg IP, day 7) was 3.7% and the body weight (200 mg/kg IP, day 8) was 39.7 g. For the same compound, the “body weight change (% wt/wt)” value (200 mg/kg IP, day 8) was 5.0%, the body weight (200 mg/kg IP, day 9) was 38 g and the “body weight change (% wt/wt)” value (200 mg/kg IP, day 9) was 0.5%. The body weight (200 mg/kg IP, day 10) was 37.9 g, the “body weight change (% wt/wt)” value (200 mg/kg IP, day 10) was 0.3% and the body weight (200 mg/kg IP, day 11) was 38.2 g. The “body weight change (% wt/wt)” value (200 mg/kg IP, day 11) was 1.1%, the body weight (200 mg/kg IP, day 12) was 38.7 g and the “body weight change (% wt/wt)” value (200 mg/kg IP, day 12) was 2.4%. The body weight (200 mg/kg IP, day 13) was 37.9 g, the “body weight change (% wt/wt)” value (200 mg/kg IP, day 13) was 0.3% and the body weight (200 mg/kg IP, day 14) was 38.8 g. For the same compound, the “body weight change (% wt/wt)” value (200 mg/kg IP, day 14) was 2.6%, the body weight (200 mg/kg IP, day 15) was 37.6 g and the “body weight change (% wt/wt)” value (200 mg/kg IP, day 15) was −0.5%. The body weight (400 mg/kg IP, day 1) was 40.3 g, the “body weight change (% wt/wt)” value (400 mg/kg IP, day 1) was 0% and the body weight (400 mg/kg IP, day 2) was 40 g. The “body weight change (% wt/wt)” value (400 mg/kg IP, day 2) was “−.07%”, the body weight (400 mg/kg IP, day 3) was 41.3 g and the “body weight change (% wt/wt)” value (400 mg/kg IP, day 3) was 2.5%. The body weight (400 mg/kg IP, day 4) was 40.8 g, the “body weight change (% wt/wt)” value (400 mg/kg IP, day 4) was 1.2% and the body weight (400 mg/kg IP, day 5) was 39.6 g. For the same compound, the “body weight change (% wt/wt)” value (400 mg/kg IP, day 5) was −1.7%, the body weight (400 mg/kg IP, day 6) was 40.4 g and the “body weight change (% wt/wt)” value (400 mg/kg IP, day 6) was 0.2%. The body weight (400 mg/kg IP, day 7) was 40.5 g, the “body weight change (% wt/wt)” value (400 mg/kg IP, day 7) was 0.5% and the body weight (400 mg/kg IP, day 8) was 40.7 g. For the same compound, the “body weight change (% wt/wt)” value (400 mg/kg IP, day 8) was 1.0%, the body weight (400 mg/kg IP, day 9) was 39.4 g and the “body weight change (% wt/wt)” value (400 mg/kg IP, day 9) was −2.2%. The body weight (400 mg/kg IP, day 10) was 40 g, the “body weight change (% wt/wt)” value (400 mg/kg IP, day 10) was −0.7% and the body weight (400 mg/kg IP, day 11) was 39.7 g. For the same compound, the “body weight change (% wt/wt)” value (400 mg/kg IP, day 11) was −1.5%, the body weight (400 mg/kg IP, day 12) was 40.1 g and the “body weight change (% wt/wt)” value (400 mg/kg IP, day 12) was −0.5%. The body weight (400 mg/kg IP, day 13) was 40.1 g, the “body weight change (% wt/wt)” value (400 mg/kg IP, day 13) was −0.5% and the body weight (400 mg/kg IP, day 14) was 40.2 g. The “body weight change (% wt/wt)” value (400 mg/kg IP, day 14) was −0.2%, the body weight (400 mg/kg IP, day 15) was 39.3 g and the “body weight change (% wt/wt)” value (400 mg/kg IP, day 15) was −2.5%. For the same compound, the observations after administration (mice, IP administration) was “a decrease in locomotor and piloererection right after administration were observed, these were reversible and full recovery was observed”.

Source: patent US12084459B2, “2-(4-{1-[6-(4-isopropyl-phenyl)-imidazo[2,1-b][1,3,4]thiadiazol-2-yl]-piperidin-4-ylmethyl}-piperazin-1-yl)-ethanol and use thereof” (Urifer Ltd., priority 2020, dated 2024)
